Data reported in paper PMC2706954, “Dissecting Structural and Functional Diversity of the Lantibiotic Mersacidin” (Chemistry & Biology, 2009).
In brackets after ≈: the same amount, converted by molar mass.

Experiments:
S. aureus R33 MRSA = type: cell-based, Staphylococcus aureus; conditions: R33
Description: (§1) Antibacterial activity of fermentation samples or purified samples was determined by Mueller-Hinton Agar diffusion bioassays using M. luteus ATCC 4698 as the indicator strain. Susceptibility testing (minimum inhibitory concentration [MIC]) for all aerobic organisms, with the exception of S. pneumoniae, was performed following the recommendations of CLSI. Susceptibility testing of S. pneumoniae was performed by two-fold serial dilutions in brain-heart-infusion broth supplemented with 50 μg/ml Ca^2+. Vancomycin was used as a reference antibiotic, and plates were incubated aerobically, with shaking, for 18–20 hr at 37°C with the MIC defined as the lowest concentration of drug that prevented visible growth.

S. aureus SH1000 = type: cell-based, Staphylococcus aureus; conditions: SH1000
Description: as §1

S. pneumoniae BAA-255 = type: cell-based, Streptococcus pneumoniae; conditions: BAA-255
Description: as §1

M. luteus ATCC4698 = type: cell-based, Micrococcus luteus; conditions: ATCC4698
Description: as §1

E. faecalis ATCC29212 = type: cell-based; conditions: ATCC29212
Description: as §1

E. faecium 7131121 VRE = type: cell-based; conditions: 7131121 VRE
Description: as §1

E. faecium ATCC19579 = type: cell-based; conditions: ATCC19579
Description: as §1

S. epidermidis NCTC11047 = type: cell-based; conditions: NCTC11047
Description: as §1

Row | MIC S. aureus R33 MRSA (S. aureus R33 MRSA) [µg/mL] | MIC S. aureus SH1000 (S. aureus SH1000) [µg/mL] | MIC S. pneumoniae BAA-255 (S. pneumoniae BAA-255) | MIC M. luteus ATCC4698 (M. luteus ATCC4698) [µg/mL] | MIC E. faecalis ATCC29212 (E. faecalis ATCC29212) [µg/mL] | MIC E. faecium 7131121 VRE (E. faecium 7131121 VRE) [µg/mL] | MIC E. faecium ATCC19579 (E. faecium ATCC19579) [µg/mL] | MIC S. epidermidis NCTC11047 (S. epidermidis NCTC11047) [µg/mL] | SMILES
1 | 32 (≈ 17.4 µM) | 64 (≈ 34.8 µM) | – | – | 64 (≈ 34.8 µM) | 32 (≈ 17.4 µM) | 32 (≈ 17.4 µM) | 16 (≈ 8.69 µM) | C=C1NC(=O)C2NC(=O)[C@H](CC(C)C)NC(=O)C(NC(=O)[C@@H]3CSC(C)C(NC(=O)[C@H](Cc4ccccc4)NC(=O)C4NC(=O)[C@@H](N)CSC4C)C(=O)N[C@@H](CC(C)C)C(=O)N4CCC[C@H]4C(=O)NCC(=O)NCC(=O)NCC(=O)NCC(=O)N[C@@H](CC(C)C)C(=O)N3)C(C)SC[C@H](NC(=O)[C@H](CCC(=O)O)NC1=O)C(=O)N[C@@H]([C@@H](C)CC)C(=O)NC=CSC2C (some centres unmarked) [V11L]
2 | 16 (≈ 8.82 µM) | 32 (≈ 17.6 µM) | 2 µg/mL (≈ 1.1 µM) | – | 64 (≈ 35.3 µM) | 64 (≈ 35.3 µM) | 32 (≈ 17.6 µM) | 16 (≈ 8.82 µM) | CC[C@H](C)[C@@H]1NC(=O)[C@@H]2CSC(C)C(NC(=O)[C@@H]3CSC(C)C(NC(=O)[C@H](Cc4ccccc4)NC(=O)C4NC(=O)[C@@H](N)CSC4C)C(=O)N[C@@H](CC(C)C)C(=O)N4CCC[C@H]4C(=O)NCC(=O)NCC(=O)NCC(=O)NCC(=O)N[C@@H](C(C)C)C(=O)N3)C(=O)N[C@@H](CC(C)C)C(=O)NC(C(=O)NCC(=O)N[C@@H](CCC(=O)O)C(=O)N2)C(C)SC=CNC1=O (some centres unmarked) [S16G]
3 | 16 (≈ 8.83 µM) | 32 (≈ 17.7 µM) | 4 µg/mL (≈ 2.21 µM) | – | 64 (≈ 35.3 µM) | >64 | 64 (≈ 35.3 µM) | 16 (≈ 8.83 µM) | C=C1NC(=O)C2NC(=O)[C@H](C(C)C)NC(=O)C(NC(=O)[C@@H]3CSC(C)C(NC(=O)[C@H](Cc4ccccc4)NC(=O)C4NC(=O)[C@@H](N)CSC4C)C(=O)N[C@@H](CC(C)C)C(=O)N4CCC[C@H]4C(=O)NCC(=O)NCC(=O)NCC(=O)NCC(=O)N[C@@H](C(C)C)C(=O)N3)C(C)SC[C@H](NC(=O)[C@H](CCC(=O)O)NC1=O)C(=O)N[C@@H]([C@@H](C)CC)C(=O)NC=CSC2C (some centres unmarked) [L14V]
4 | – | 64 (≈ 34.3 µM) | 64, >64 μg/ml | 16 (≈ 8.57 µM) | >64 | >64 | >64 | – | C=C1NC(=O)C2NC(=O)[C@H](CC(C)C)NC(=O)C(NC(=O)[C@@H]3CSC(C)C(NC(=O)[C@H](Cc4ccccc4)NC(=O)C4NC(=O)[C@@H](N)CSC4C)C(=O)N[C@@H](CC(C)C)C(=O)N[C@@H](Cc4c[nH]cn4)C(=O)NCC(=O)NCC(=O)NCC(=O)NCC(=O)N[C@@H](C(C)C)C(=O)N3)C(C)SC[C@H](NC(=O)[C@H](CCC(=O)O)NC1=O)C(=O)N[C@@H]([C@@H](C)CC)C(=O)NC=CSC2C (some centres unmarked) [P6H]
5 | 32 (≈ 17.2 µM) | 64 (≈ 34.4 µM) | 32 µg/mL (≈ 17.2 µM) | 16 (≈ 8.61 µM) | 64 (≈ 34.4 µM) | 64 (≈ 34.4 µM) | 32 (≈ 17.2 µM) | – | C=C1NC(=O)C2NC(=O)[C@H](CC(C)C)NC(=O)C(NC(=O)[C@@H]3CSC(C)C(NC(=O)[C@H](Cc4ccccc4)NC(=O)C4NC(=O)[C@@H](N)CSC4C)C(=O)N[C@@H](CC(C)C)C(=O)N4CCC[C@H]4C(=O)NCC(=O)NCC(=O)NCC(=O)NCC(=O)N[C@@H](CCSC)C(=O)N3)C(C)SC[C@H](NC(=O)[C@H](CCC(=O)O)NC1=O)C(=O)N[C@@H]([C@@H](C)CC)C(=O)NC=CSC2C (some centres unmarked) [V11M]

The next lines start with the compound.

Row | SMILES | MIC S. aureus R33 MRSA (S. aureus R33 MRSA) [µg/mL] | MIC S. aureus SH1000 (S. aureus SH1000) [µg/mL] | MIC S. pneumoniae BAA-255 (S. pneumoniae BAA-255) | MIC M. luteus ATCC4698 (M. luteus ATCC4698) [µg/mL] | MIC E. faecalis ATCC29212 (E. faecalis ATCC29212) [µg/mL] | MIC E. faecium 7131121 VRE (E. faecium 7131121 VRE) [µg/mL] | MIC E. faecium ATCC19579 (E. faecium ATCC19579) [µg/mL] | MIC S. epidermidis NCTC11047 (S. epidermidis NCTC11047) [µg/mL]
6 | C=C1NC(=O)C2NC(=O)[C@H](CC(C)C)NC(=O)C(NC(=O)[C@@H]3CSC(C)C(NC(=O)[C@H](Cc4ccccc4)NC(=O)C4NC(=O)[C@@H](N)CSC4C)C(=O)N[C@@H](CC(C)C)C(=O)N4CCC[C@H]4C(=O)NCC(=O)NCC(=O)NCC(=O)N[C@@H](Cc4ccc(O)cc4)C(=O)N[C@@H](C(C)C)C(=O)N3)C(C)SC[C@H](NC(=O)[C@H](CCC(=O)O)NC1=O)C(=O)N[C@@H]([C@@H](C)CC)C(=O)NC=CSC2C (some centres unmarked) [G10Y] | 64 (≈ 33.1 µM) | >64 | < 4 µg/mL | < 4 | 32 (≈ 16.6 µM) | >64 | 64 (≈ 33.1 µM) | –
7 | C=C1NC(=O)C2NC(=O)[C@H](CC(C)C)NC(=O)C(NC(=O)[C@@H]3CSC(C)C(NC(=O)[C@H](Cc4ccccc4)NC(=O)C4NC(=O)[C@@H](N)CSC4C)C(=O)N[C@@H](CC(C)C)C(=O)N4CCC[C@H]4C(=O)N[C@@H](CC(N)=O)C(=O)NCC(=O)NCC(=O)NCC(=O)N[C@@H](C(C)C)C(=O)N3)C(C)SC[C@H](NC(=O)[C@H](CCC(=O)O)NC1=O)C(=O)N[C@@H]([C@@H](C)CC)C(=O)NC=CSC2C (some centres unmarked) [G7N] | – | 64 (≈ 34 µM) | 16 µg/mL (≈ 8.5 µM) | < 4 | >64 | >64 | 64 (≈ 34 µM) | 32 (≈ 17 µM)
8 | C=C1NC(=O)C2NC(=O)[C@H](CC(C)C)NC(=O)C(NC(=O)[C@@H]3CSC(C)C(NC(=O)[C@H](Cc4ccccc4)NC(=O)C4NC(=O)[C@@H](N)CSC4C)C(=O)N[C@@H](CC(C)C)C(=O)N4CCC[C@H]4C(=O)NCC(=O)N[C@@H](CCC(N)=O)C(=O)NCC(=O)NCC(=O)N[C@@H](C(C)C)C(=O)N3)C(C)SC[C@H](NC(=O)[C@H](CCC(=O)O)NC1=O)C(=O)N[C@@H]([C@@H](C)CC)C(=O)NC=CSC2C (some centres unmarked) [G8Q] | 32 (≈ 16.9 µM) | >64 | – | 8 (≈ 4.22 µM) | >64 | >64 | >64 | –
9 | C=C1NC(=O)C2NC(=O)[C@H]([C@@H](C)CC)NC(=O)C(NC(=O)[C@@H]3CSC(C)C(NC(=O)[C@H](Cc4ccccc4)NC(=O)C4NC(=O)[C@@H](N)CSC4C)C(=O)N[C@@H](CC(C)C)C(=O)N4CCC[C@H]4C(=O)NCC(=O)NCC(=O)NCC(=O)NCC(=O)N[C@@H](C(C)C)C(=O)N3)C(C)SC[C@H](NC(=O)[C@H](CCC(=O)O)NC1=O)C(=O)N[C@@H]([C@@H](C)CC)C(=O)NC=CSC2C (some centres unmarked) [L14I] | 8 (≈ 4.38 µM) | 32 (≈ 17.5 µM) | 1 µg/mL (≈ 0.548 µM) | – | 32 (≈ 17.5 µM) | – | 16 (≈ 8.76 µM) | –
10 | C=C1NC(=O)C2NC(=O)[C@H](CCSC)NC(=O)C(NC(=O)[C@@H]3CSC(C)C(NC(=O)[C@H](Cc4ccccc4)NC(=O)C4NC(=O)[C@@H](N)CSC4C)C(=O)N[C@@H](CC(C)C)C(=O)N4CCC[C@H]4C(=O)NCC(=O)NCC(=O)NCC(=O)NCC(=O)N[C@@H](C(C)C)C(=O)N3)C(C)SC[C@H](NC(=O)[C@H](CCC(=O)O)NC1=O)C(=O)N[C@@H]([C@@H](C)CC)C(=O)NC=CSC2C (some centres unmarked) [L14M] | 16 (≈ 8.68 µM) | 32 (≈ 17.4 µM) | 4 µg/mL (≈ 2.17 µM) | 2 (≈ 1.08 µM) | 64 (≈ 34.7 µM) | 64 (≈ 34.7 µM) | 64 (≈ 34.7 µM) | –
